According to ChEMBL document CHEMBL3046322, “Insect growth regulatory effects by diterpenes from Calceolaria talcana Grau & Ehrhart (Calceolariaceae: Scrophulariaceae) against Spodoptera frugiperda and Drosophila melanogaster” (2013):

What was measured:
Type in all cases: functional
Spodoptera frugiperda [1] = assay: Growth inhibitory activity against first-instar larval stage of Spodoptera frugiperda (fall armyworm) fed with compound incorporated diet assessed as weight gained at 10 ug/ml after 21 days (reference value: 100%)
Spodoptera frugiperda [2] = assay: Insecticidal activity against first-instar larval stage of Spodoptera frugiperda (fall armyworm) fed with compound incorporated diet assessed as mortality at 50 ug/ml after 7 days (reference value: 5.6%); conditions: 168 h
Spodoptera frugiperda [3] = assay: Acute toxicity against last larval stage of Spodoptera frugiperda (fall armyworm) assessed as survival at 10 ug/ml applied topically onto abdomen measured after 24 hr (reference value: 98.8 +/-3.5%)
Spodoptera frugiperda [4] = assay: Growth inhibitory activity against first-instar larval stage of Spodoptera frugiperda (fall armyworm) fed with compound incorporated diet assessed as weight gained at 50 ug/ml after 7 days (reference value: 100%); design: scale not given: the % may be the effect or the level left
Spodoptera frugiperda [5] = assay: Growth inhibitory activity against first-instar larval stage of Spodoptera frugiperda (fall armyworm) fed with compound incorporated diet assessed as length gained at 50 ug/ml after 21 days (reference value: 100%)
Spodoptera frugiperda [6] = assay: Growth inhibitory activity against first-instar larval stage of Spodoptera frugiperda (fall armyworm) fed with compound incorporated diet assessed as length gained at 5 ug/ml after 7 days (reference value: 100%); design: scale not given: the % may be the effect or the level left
Spodoptera frugiperda [7] = assay: Growth inhibitory activity against first-instar larval stage of Spodoptera frugiperda (fall armyworm) fed with compound incorporated diet assessed as weight gained at 20 ug/ml after 21 days (reference value: 100%)
Spodoptera frugiperda [8] = assay: Insecticidal activity against first-instar larval stage of Spodoptera frugiperda (fall armyworm) fed with compound incorporated diet assessed as mortality at 10 ug/ml after 7 days (reference value: 5.6%); conditions: 168 h
Spodoptera frugiperda [9] = assay: Growth inhibitory activity against Spodoptera frugiperda (fall armyworm) larvae fed with compound containing diet assessed as growth index at 20 ug/ml (reference value: 0.95 +/-0.02 no_unit)
Spodoptera frugiperda [10] = assay: Growth inhibitory activity against first-instar larval stage of Spodoptera frugiperda (fall armyworm) fed with compound incorporated diet assessed as weight gained at 10 ug/ml after 7 days (reference value: 100%); design: scale not given: the % may be the effect or the level left
Spodoptera frugiperda [11] = assay: Acute toxicity against last larval stage of Spodoptera frugiperda (fall armyworm) assessed as survival at 5 ug/ml applied topically onto abdomen measured after 24 hr (reference value: 98.8 +/-3.5%)
Spodoptera frugiperda [12] = assay: Insecticidal activity against first-instar larval stage of Spodoptera frugiperda (fall armyworm) fed with compound incorporated diet assessed as mortality at 50 to 100 ug/ml after 7 days
Spodoptera frugiperda [13] = assay: Growth inhibitory activity against first-instar larval stage of Spodoptera frugiperda (fall armyworm) fed with compound incorporated diet assessed as weight gained at 35 ug/ml after 21 days (reference value: 100%)
Spodoptera frugiperda [14] = assay: Insecticidal activity against first-instar larval stage of Spodoptera frugiperda (fall armyworm) fed with compound incorporated diet assessed as mortality at 5 ug/ml after 21 days (reference value: 5.6%); conditions: 504 h
Spodoptera frugiperda [15] = assay: Growth inhibitory activity against first-instar larval stage of Spodoptera frugiperda (fall armyworm) fed with compound incorporated diet assessed as length gained at 5 ug/ml after 21 days (reference value: 100%)
Drosophila melanogaster [16] = assay: Insecticidal activity against Drosophila melanogaster larvae fed with compound incorporated diet assessed as mortality at 35 ug/ml after 72 hr by not choice test (reference value: 0%)
Spodoptera frugiperda [17] = assay: Growth inhibitory activity against Spodoptera frugiperda (fall armyworm) larvae fed with compound containing diet assessed as delay in time to pupation at 5 ug/ml
Drosophila melanogaster [18] = assay: Insecticidal activity against Drosophila melanogaster larvae fed with compound incorporated diet assessed as mortality at 5 ug/ml after 72 hr by not choice test (reference value: 0%)
Spodoptera frugiperda [19] = assay: Acute toxicity against last larval stage of Spodoptera frugiperda (fall armyworm) assessed as survival at 35 ug/ml applied topically onto abdomen measured after 24 hr (reference value: 98.8 +/-3.5%)
Spodoptera frugiperda [20] = assay: Acute toxicity against last larval stage of Spodoptera frugiperda (fall armyworm) assessed as survival at 20 ug/ml applied topically onto abdomen measured after 24 hr (reference value: 98.8 +/-3.5%)
Spodoptera frugiperda [21] = assay: Acute toxicity against last larval stage of Spodoptera frugiperda (fall armyworm) assessed as survival at 70 ug/ml applied topically onto abdomen measured after 24 hr (reference value: 98.8 +/-3.5%)
Drosophila melanogaster [22] = assay: Insecticidal activity against Drosophila melanogaster larvae fed with compound incorporated diet assessed as mortality at 100 ug/ml after 72 hr by not choice test (reference value: 0%)
Spodoptera frugiperda [23] = assay: Growth inhibitory activity against Spodoptera frugiperda (fall armyworm) larvae fed with compound containing diet assessed as relative growth index at 50 ug/ml (reference value: 1.0 no_unit)
Spodoptera frugiperda [24] = assay: Growth inhibitory activity against Spodoptera frugiperda (fall armyworm) larvae fed with compound containing diet assessed as growth index at 50 ug/ml (reference value: 0.95 +/-0.02 no_unit)
Spodoptera frugiperda [25] = assay: Acute toxicity against last larval stage of Spodoptera frugiperda (fall armyworm) assessed as survival at 50 ug/ml applied topically onto abdomen measured after 24 hr (reference value: 98.8 +/-3.5%)
Spodoptera frugiperda [26] = assay: Growth inhibitory activity against Spodoptera frugiperda (fall armyworm) larvae fed with compound containing diet assessed as reduction in survival pupation at >35 ug/ml
Spodoptera frugiperda [27] = assay: Growth inhibitory activity against Spodoptera frugiperda (fall armyworm) larvae fed with compound containing diet assessed as delay in time to pupation at 20 ug/ml

Row | Compound | Weight gain (% of control) (Spodoptera frugiperda [1]) | mortality at 50 µg/mL (Spodoptera frugiperda [2]) | Activity (Spodoptera frugiperda [3]) | Activity (Spodoptera frugiperda [4]) | Length gained (% of control) (Spodoptera frugiperda [5]) | Activity (Spodoptera frugiperda [6]) | Weight gain relative to control (Spodoptera frugiperda [7]) | mortality at 10 µg/mL (Spodoptera frugiperda [8]) | Growth_index (Spodoptera frugiperda [9]) | Activity (Spodoptera frugiperda [10]) | Activity (Spodoptera frugiperda [11]) | mortality (Spodoptera frugiperda [12]) | Weight gain relative to control (Spodoptera frugiperda [13]) | mortality at 5 µg/mL (Spodoptera frugiperda [14]) | Length gained (% of control) (Spodoptera frugiperda [15]) | Activity (Spodoptera frugiperda [19]) | Activity (Spodoptera frugiperda [20]) | mortality at 100 µg/mL (Drosophila melanogaster [22]) | also measured
1 | C=CC(C)(C)C1=C(O)C(=O)c2ccccc2C1=O | 27.7% | 100% | 6.8% | 0% | 0% | 50.8% | 9% | 83.3% | 0.12 | 29.3% | 35.5% | 100% | 7.8% | 66.7% | 64.3% |  |  |  | 
2 | C=C[C@]1(C)CC[C@H]2C(=CC[C@@H]3[C@](C)(CO)CC[C@@H]4C[C@@]432)C1 | 10.6% | 100% | 3.5% | 0% | 0% | 68.7% | 0% | 37.3% | 0.19 | 17.1% | 27% | 100% | 0% | 55.8% | 55% |  |  |  | mortality at 35 µg/mL (Drosophila melanogaster [16]): 100%; Time (Spodoptera frugiperda [17]): >24 days; mortality at 5 µg/mL (Drosophila melanogaster [18]): 0%
3 | CC(C)c1ccc2c(c1)CC[C@H]1[C@](C)(CO)CCC[C@]21C [POMIFERIN A] | 65.8% | 83.3% | 69.1% | 41.3% | 37.4% | 88.3% | 50.6% | 41.7% | 0.91 | 81.3% | 75% |  | 38.2% | 4.16% | 85.6% | 6.9% | 51% | 82.9% | Activity (Spodoptera frugiperda [21]): 0%; Growth_index (Spodoptera frugiperda [23]): 0.71; Growth_index (Spodoptera frugiperda [24]): 0.54; Activity (Spodoptera frugiperda [25]): 3.9%; inhibition (INH) (Spodoptera frugiperda [26]): 0%
4 | C[C@H]1[C@H](C)CC[C@]2(C(=O)O)CC[C@]3(C)C(=CC[C@@H]4[C@@]5(C)CC[C@H](O)C(C)(C)[C@@H]5CC[C@]43C)[C@H]12 [URSOLIC ACID] | 47.4% | 79.1% | 52.9% | 32.5% | 0% | 68.6% | 30.1% | 16.7% | 0.28 | 53.3% | 73% | 100% | 0% | 79.1% | 57.2% | 7.9% | 20.1% | 100% | Time (Spodoptera frugiperda [27]): >24 days
